The record followed here is US5118811A, “Amino acid derivatives possessing prolyl endopeptidase-inhibitory activities” (Japan Tobacco Inc., priority 1989, dated 1992).

The target of one experiment is T1, prolyl endopeptidase (Rattus norvegicus, UniProt O70196).
T1 construct: prolyl endopeptidase extracted from rat brain; from tissue; host or cells: rat brain
Description: Prolyl Endopeptidase-Inhibitory Activity. It counts as biochemical. To be noted: for IC50: prolyl endopeptidase extracted from rat brain, pH 7.0, 30° C., preincubated 30 minutes, 1 hour; for inhibition at 10 µM: 1 × 10^-5 M. The procedure: A mixture of a 0.1M potassium sodium phosphate buffer (pH 7.0) (2675 μl), a solution of the compounds of the present invention in a 0.1M potassium sodium phosphate buffer (pH 7.0) (100 μl) and a solution of prolyl endopeptidase extracted from rat brain in a 25 mM sodium phosphate buffer (100 μl) [123 unit/1, pH 6.8, containing 1 mM dithiothreitol and 0.5 mM EDTA, prepared by the method described in J. Neurochem., 35, 527 (1980)] was preincubated at 30° C. for 30 minutes. Thereto was added a 0.2 mM solution of 7-(N-succinyl-glycyl-prolyl)-4-methylcoumarinamide (Peptide Institute, INC.) in a 0.1M potassium sodium phosphate buffer (pH 7.0) (125 μl), and the mixture was incubated at 30° C. for 1 hour. The reaction mixture was immersed in ice (0° C.) to terminate the reaction, and the fluorescence (a1) was determined ten minutes later (excitation at 370 nm and emission at 440 nm). Concurrently, there were conducted the experiment wherein, in the above system, the prolyl endopeptidase solution was substituted for a 25 mM sodium phosphate buffer (pH 6.8, containing 1 mM dithiothreitol and 0.5 mM EDTA) and the experiment wherein the solution of the compounds of the present invention was also substituted for a 0.1M potassium sodium phosphate buffer (pH 7.0). Each fluorescence (a2 and a3) was also determined respectively [See Tanpakushitsu Kakusan Koso, 29, 127 (1984)]. The prolyl endopeptidase-inhibition rate was calculated by the following formula, and IC50, a concentration of a compound producing 50% inhibition, was estimated by semilogarithmic graph paper. [formula]

The target in another experiment is T2, trypsin (Bos taurus, UniProt P00760).
T2 construct: purchased Sigma; host or cells: bovine pancreas
T2 sequence (P00760 24-246): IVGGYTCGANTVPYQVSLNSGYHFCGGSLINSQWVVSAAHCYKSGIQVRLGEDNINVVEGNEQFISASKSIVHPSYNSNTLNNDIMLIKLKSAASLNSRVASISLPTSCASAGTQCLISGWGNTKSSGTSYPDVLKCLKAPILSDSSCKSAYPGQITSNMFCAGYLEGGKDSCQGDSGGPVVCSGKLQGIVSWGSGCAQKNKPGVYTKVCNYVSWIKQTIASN
Briefly: Trypsin-Inhibitory Activity. Type of experiment: biochemical, bovine. As to conditions: read-out: Inhibition rate, trypsin; for inhibition at 10 µM: 1 × 10^-5 M. The method, then: In the present invention, a 50 mM Tris-HCl buffer (pH 8.0) was employed as a buffer for measurement.
To a mixture of the above-mentioned buffer (850 μl), a solution of the compounds of the present invention in the same buffer (50 μl) and a 0.02 μM solution of trypsin (derived from bovine pancreas, Sigma) in the same buffer (50 μl) was added a 200 μM solution of 7-(prolyl-phenylaranyl-arginyl)-4-methylcoumarinamide (Peptide Institute, Inc.) in the same buffer (50 μl), and the mixture was incubated at 30° C. for 1 hour. The reaction mixture was immersed in ice (0° C.) to terminate the reaction, and the fluorescence (b1) was determined 1 hour later (excitation at 370 nm and emission at 440 nm). Concurrently, there were conducted the experiment wherein, in the system above, the trypsin solution was substituted for a buffer alone, and the experiment wherein the solution of the compounds of the present invention was also substituted for a buffer above. Each fluorescence (b2 and b3) was also determined respectively.
(§1) Using the fluorescence x1, x2 and x3 measured in the above-mentioned manner, the inhibitory rate against various proteases was calculated by the following formula where x stands for b, c, d, e or f: [formula]

The target of a further experiment is T3, chymotrypsin (Bos taurus, UniProt P00766).
T3 construct: purchased Sigma; host or cells: bovine pancreas
Description: Chymotrypsin-Inhibitory Activity. It counts as biochemical, bovine. As to conditions: read-out: Inhibition rate, chymotrypsin; for inhibition at 10 µM: 1 × 10^-5 M. The procedure:
Similarly, by following the procedure mentioned above, but employing a 50 mM Tris-HCl buffer (pH 8.0) as a buffer for measurement, a 0.2 μM solution of chymotrypsin (derived from bovine pancrease, Sigma) in the same buffer as an enzyme solution and a 200 μM solution of 7-(N-succinyl-leucyl-leucyl-valyl-tyrosyl)-4-methylcoumarinamide (Peptide Institute, Inc.) in the same buffer as a substrate solution. Each fluorescence (c1, c2 and c3) was also determined, respectively.
as §1

The subject of another experiment is leucine aminopeptidase. Briefly: Leucine Aminopeptidase-Inhibitory Activity. It counts as biochemical, swine. The procedure: Similarly, by following the procedure mentioned above, but employing a 50 mM Tris-HCl buffer (pH 8.0) as a buffer for measurement, a 0.2 μM solution of leucine aminopeptidase (derived from swine kidney, Sigma) in the same buffer as an enzyme solution and a 200 μM solution of 7-(leucyl-4-methylcoumarinamide (Peptide Institute, Inc.) in the same buffer as a substrate solution. Each fluorescence (d1, d2 and d3) was also determined, respectively.
as §1

A further experiment has as its target T4, elastase (Sus scrofa, UniProt P00772).
T4 construct: purchased Sigma; host or cells: swine pancreas
Briefly: Elastase-Inhibitory Activity. Type of experiment: biochemical, swine. To be noted: read-out: Inhibition rate, elastase; for inhibition at 10 µM: 1 × 10^-5 M. The procedure:
Similarly, by following the procedure mentioned above, but employing a 1 mM Tris-HCl buffer (pH 8.5) as a buffer for measurement, a 0.2 μM solution of elastase (derived from swine pancreas, Sigma) in the same buffer as an enzyme solution and a 200 μM solution of 7-(N-succinyl-aranyl-prolyl-aranyl)-4-methylcoumarinamide (Peptide Institute, Inc.) in the same buffer as a substrate solution. Each fluorescence (e1, e2 and e3) was also determined, respectively.
as §1

In another experiment the target is T5, cathepsin B (Bos taurus, UniProt P07688).
T5 construct: purchased Sigma; host or cells: bovine spleen
Briefly: Cathepsin B-Inhibitory Activity. It counts as biochemical, bovine. As to conditions: read-out: Inhibition rate, cathepsin B; for inhibition at 10 µM: 1 × 10^-5 M. The method, then:
Similarly, by following the procedure mentioned above, but employing a 100 mM sodium phosphate buffer (pH 6.0; containing 1.33 mM EDTA Na2) as a buffer for measurement, a 0.02 μM solution of cathepsin B (derived from bovine spleen, Sigma) in the same buffer as an enzyme solution and a 200 μM solution of 7-(N-benzyloxycarbonyl-phenylaranyl-arginyl)-4-methylcoumarinamide (Peptide Institute, Inc.) in the same buffer as a substrate solution. Each fluorescence (f1, f2 and f3) was also determined, respectively.
as §1

Setting [1] is: read-out: Inhibition rate, prolyl endopeptidase.

The structures appear in SMILES notation.

T4 sequence (P00772 27-266): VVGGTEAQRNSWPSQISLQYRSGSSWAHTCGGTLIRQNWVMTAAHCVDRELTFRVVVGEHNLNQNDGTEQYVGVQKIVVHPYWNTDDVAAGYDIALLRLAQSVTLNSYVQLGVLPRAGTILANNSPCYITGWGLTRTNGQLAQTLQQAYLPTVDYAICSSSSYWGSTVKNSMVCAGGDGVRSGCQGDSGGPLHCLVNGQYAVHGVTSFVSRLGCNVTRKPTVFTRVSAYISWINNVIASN
T1 sequence (O70196 whole entry): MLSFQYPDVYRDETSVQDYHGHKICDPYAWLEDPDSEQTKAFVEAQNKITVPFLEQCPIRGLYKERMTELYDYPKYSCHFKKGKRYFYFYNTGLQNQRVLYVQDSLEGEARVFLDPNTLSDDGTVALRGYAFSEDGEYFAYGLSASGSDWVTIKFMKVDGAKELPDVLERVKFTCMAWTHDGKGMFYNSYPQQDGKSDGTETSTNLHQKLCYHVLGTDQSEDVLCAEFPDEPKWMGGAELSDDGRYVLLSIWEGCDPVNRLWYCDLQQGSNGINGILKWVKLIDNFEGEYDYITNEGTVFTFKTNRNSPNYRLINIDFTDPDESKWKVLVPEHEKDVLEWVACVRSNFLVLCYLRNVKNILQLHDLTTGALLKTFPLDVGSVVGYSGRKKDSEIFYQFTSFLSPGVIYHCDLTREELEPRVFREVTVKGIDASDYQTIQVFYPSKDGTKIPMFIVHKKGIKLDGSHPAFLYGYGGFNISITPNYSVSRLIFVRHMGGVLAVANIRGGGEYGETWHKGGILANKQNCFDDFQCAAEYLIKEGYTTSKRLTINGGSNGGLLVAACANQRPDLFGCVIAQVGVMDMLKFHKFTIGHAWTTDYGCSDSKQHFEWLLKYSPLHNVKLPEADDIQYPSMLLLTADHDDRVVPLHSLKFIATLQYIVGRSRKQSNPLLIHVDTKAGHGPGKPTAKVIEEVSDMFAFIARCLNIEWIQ

For the compound `N#C[C@@H]1CCCN1C(=O)CCC(=O)NCc1ccc(Cl)cc1` [Compound 22, (2S)-1-[4-Oxo-4-(4-chlorobenzylamino)butanoyl]-2-cyanopyrrolidine], the inhibition – broadly, the change of the read-out against control, counted positive when it falls – at 1 µM turned out to be 100% on prolyl endopeptidase (1 × 10^-6 M, read-out: Inhibition rate, prolyl endopeptidase); 0% on trypsin (1 × 10^-6 M); 0% on chymotrypsin (1 × 10^-6 M); 0% at elastase (1 × 10^-6 M); 0% at cathepsin B (1 × 10^-6 M). For the same compound, the IC50 (in general, the concentration at which inhibition is half-maximal) at prolyl endopeptidase came to 10 nM. The “Inhibition rate, leucine aminopeptidase” value in the experiment on leucine aminopeptidase (1 × 10^-6 M) was 0%.

Consider `O=C([C@@H]1CCCN1C(=O)OCc1ccccc1)N1CCC[C@H]1C=NO` [Compound 12, (2S)-1-(N-Benzyloxycarbonyl-L-prolyl)-2-pyrrolidinecarboxaldehyde oxime], for which the inhibition at 10 µM at prolyl endopeptidase (setting [1]) stood at 100%; at trypsin, 0%; at chymotrypsin, 0%; on elastase it was 0%; at cathepsin B, 0%. This compound also showed an IC50 against prolyl endopeptidase of 450 nM. Besides, the “Inhibition rate, leucine aminopeptidase” value in the experiment on leucine aminopeptidase (1 × 10^-5 M) was 0%.

For the compound `O=C1CCCN1CC(=O)N1CSC[C@H]1C(=O)N1CCSC1` [Compound 9, 3-{N-[(2-Oxo-1-pyrrolidinyl)acetyl]-L-thioprolyl}thiazolidine], the inhibition at 10 µM at prolyl endopeptidase (setting [1]) came to 97%; at trypsin it was 0%; on chymotrypsin, 0%; at elastase, 0%; on cathepsin B, 0%. Besides, at prolyl endopeptidase, the midpoint of inhibition, the IC50, lay at 150 nM. Also, the “Inhibition rate, leucine aminopeptidase” value with leucine aminopeptidase (1 × 10^-5 M) is 0%.
